Measurements taken from patent US9359371B2, “Bicyclic substituted pyrimidine compounds” (Xuanzhu Pharma Co., Ltd., priority 2012, dated 2016).

What was measured:
[1] = tested on: length of New Zealand rabbit's penis; assay: Pharmacological activity in vivo (intravenous injection), rabbit penis length; parameters: species or system New Zealand rabbits; settings: Table 5; iv 10 mg/kg, 1 mL/kg; sodium nitroprussiate 0.2 mg/kg iv 5 min after; 0-120 min
Procedure: Experiment 5: Assay of Pharmacological Activity In Vivo (Intravenous Injection)
After accommodating with the environment, the New Zealand rabbits were grabbed everyday. When the rabbits were accustomed to the repeated grabbing, drug administration was began. The animals were randomly divided into groups by weight. The test compounds were separately dissolved in menstruum. […] The corresponding test compounds were injected into the auricular veins of animals of each group. The dosage of the compounds in Table 5 was 10 mg/kg, and the administration volume was 1 mL/kg. The dosage of the compounds in Table 6 was 10 mg/kg, and the administration volume was 2 mL/kg. 0.2 mg/kg sodium nitroprussiate was intravenously injected into the rabbits 5 min after the administration of the test compounds, with the administration volume of 0.5 mL/kg.
The length of the rabbit's penis was measured with a digital caliper before and 10, 15, 30, 50, 60, 90 and 120 min after the administration. Touch of the rabbit's penis by the caliper was avoided during the measurements.

hERG channel = hERG channel (Homo sapiens (Human), UniProt Q12809); assay: hERG potassium channel whole-cell patch clamp on CHO-K1 cell line
hERG channel, sequence (Q12809 whole entry): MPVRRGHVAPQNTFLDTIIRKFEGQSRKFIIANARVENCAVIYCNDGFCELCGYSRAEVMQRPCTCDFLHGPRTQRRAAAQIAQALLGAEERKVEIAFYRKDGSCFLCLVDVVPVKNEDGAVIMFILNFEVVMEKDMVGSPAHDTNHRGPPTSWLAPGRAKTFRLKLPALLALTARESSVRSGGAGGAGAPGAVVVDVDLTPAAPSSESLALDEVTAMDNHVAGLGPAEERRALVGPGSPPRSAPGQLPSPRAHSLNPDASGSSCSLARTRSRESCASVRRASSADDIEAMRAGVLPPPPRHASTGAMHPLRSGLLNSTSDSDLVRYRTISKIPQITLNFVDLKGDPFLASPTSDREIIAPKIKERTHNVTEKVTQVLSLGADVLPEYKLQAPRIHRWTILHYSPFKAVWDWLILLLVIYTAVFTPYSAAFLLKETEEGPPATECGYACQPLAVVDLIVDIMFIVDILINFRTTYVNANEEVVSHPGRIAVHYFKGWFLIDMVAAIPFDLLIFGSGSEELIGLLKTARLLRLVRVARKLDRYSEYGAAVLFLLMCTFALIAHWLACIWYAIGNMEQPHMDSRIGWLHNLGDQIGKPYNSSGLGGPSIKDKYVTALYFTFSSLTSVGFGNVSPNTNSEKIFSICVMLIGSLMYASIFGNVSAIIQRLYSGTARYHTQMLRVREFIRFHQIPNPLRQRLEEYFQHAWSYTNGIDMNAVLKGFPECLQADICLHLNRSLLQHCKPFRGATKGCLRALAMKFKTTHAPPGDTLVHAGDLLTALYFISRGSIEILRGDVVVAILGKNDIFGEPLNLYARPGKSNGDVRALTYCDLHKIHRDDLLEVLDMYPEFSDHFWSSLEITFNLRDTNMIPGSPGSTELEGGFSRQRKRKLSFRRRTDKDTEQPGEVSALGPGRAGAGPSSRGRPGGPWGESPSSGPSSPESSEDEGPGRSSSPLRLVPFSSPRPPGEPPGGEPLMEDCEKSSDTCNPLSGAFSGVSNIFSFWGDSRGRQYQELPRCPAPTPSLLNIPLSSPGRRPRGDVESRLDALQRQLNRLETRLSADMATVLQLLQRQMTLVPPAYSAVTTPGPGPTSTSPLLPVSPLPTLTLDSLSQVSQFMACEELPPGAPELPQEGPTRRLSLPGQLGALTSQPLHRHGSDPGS
Source text: Experiment 8: Detection of Inhibitory Effect of the Compounds of the Present Invention on hERG Potassium Channel by the Patch Clamp Method
Rapidly activated human delayed rectifying outward potassium current (IKr) is mainly mediated by hERG ion channel and is involved in repolarization of human cardiac muscle cell. Clinically, blocking of the current by a drug is the main cause of QT interval prolongation syndrome, acute arrhythmia and even sudden death. The main purpose of the experiment is to test the blocking effect of the compounds of the present invention on hERG channel, and to determine the half maximal inhibitory concentration (IC50) of the compounds.
The experiment mainly included: (1) recording hERG current by patch clamp technique on CHO-K1 cell line which stably expressed hERG channel; (2) calculating the Inhibition rate of each concentration according to hERG tail current; (3) testing each compound at 5 concentrations to calculate IC50; (4) testing 2 cells at each concentration; (5) a positive control.
The structures and synthesis of Compound 88 (WO-88) and Compound 93 (WO-93) as disclosed in WO200119802A were described in Example 55 and Example 56.
Drug for positive control: Amitriptyline hydrochloride (Sigma-Aldrich, an international standard blocker for hERG channel)
Pippette Solution (in mM): KCl 120, KOH 31.25, CaCl2 5.374, MgCl2 1.75, Ethylene glycol-bis(β-aminoethyl ether)-N,N,N′,N′-tetraacetic acid (EGTA) 10, HEPES 10, Na2-ATP 4, adjusted to a pH of 7.2 with 1N potassium hydroxide; adjusted to an osmotic pressure of 280-290 mOsm; preserved at −20° C. after filtration.
Preparation of compounds: Some of the compounds of the present invention and Amitriptyline hydrochloride as the positive control drug were separately dissolved in 100% DMSO (Merck, 61850125001730), then prepared into stock solutions of 30 mM. Before the experiment, the above stock solutions were diluted with DMSO to a concentration of 1000-fold of the experimental concentration. Then the diluted solutions were further diluted with extracellular solution by 1:1000 to the required experimental concentration. The final concentration of DMSO in the extracellular solution was kept as 0.1%.
Stable cell line CHO-hERG was purchased from AVIVA Company. The hERG current on the cell line was recorded. For the purpose of quality control, the smallest seal resistance was no less than 500 MΩ, and the hERG current was no less than 0.4 nA.
The hERG current was recorded by a whole-cell patch clamp technique. Cell suspension was added into a 35-mm culture dish. The culture dish was placed on the objective table of an inverted microscope. Upon cell attachment, perfusion was conducted with the extracellular solution at a flow rate of 1-2 mL/min.
Glass microelectrode with the pipette tip resistance of 2-5 MΩ was controlled by a microelectrode puller via a two-step process. After the whole-cell record was set up, the clamp potential was kept at −80 mV. The cell was depolarized to +60 mV by applying a voltage stimulus, and then repolarized to −50 mV to obtain the hERG tail current. Recordation was conducted after the current was stable. The extracellular perfusion was started from the lowest concentration, with 5-10 min for each concentration until the current was stable, and then conducted with the next concentration.
Stimulus payment and signal collection were performed by A/D-D/A conversion using Digidata 1440 (Molecular Devices) and pCLAMP software (Version 10.2, Molecular Devices). Signal amplification was performed on a patch clamp amplifier (Multiclamp 700B, Molecular Devices), with a filter of 1 KHz. Further data analysis and curve fitting were conducted by Clampfit (version 10.2, Molecular Devices) and Prism. The data were presented as mean value±standard deviation.
In the process of data analysis, the peak value and the baseline of the tail current were corrected when determining the blocking effect on hERG.

Compound: COc1ccc(CNc2nc(N3CC4CC4C3)ncc2C(=O)N[C@H]2CC[C@H](O)CC2)cc1Cl (stereo partly drawn) [Compound 11, 2-(3-azabicyclo[3.1.0]hexan-3-yl)-4-((3-chloro-4-methoxybenzyl)amino)-N-(trans-4-hydroxycyclohexyl)pyrimidine-5-formamide]
- AUC of penis length [1]: 323.3 mm × min
- IC50 (hERG channel): > 30 µM
- inhibitory effect on hERG channel (in words) (hERG channel; human, CHO-K1 cells stably expressing hERG channel, pH 7.4): none of Compound 3, 11 and 50 of the present invention had a significant inhibitory effect
